According to ChEMBL document CHEMBL1201862, “PubChem BioAssay data set” (2004):
Active and inactive are the calls of the source.

Legend:
[1] = molecular target: T1, Intestinal-type alkaline phosphatase (Homo sapiens, UniProt P09923); test: human intestinal alkaline phosphatase activators, dose response, biochemical, luminescence, uHTS hits (AID 463120); type: functional
[2] = molecular target: T1, Intestinal-type alkaline phosphatase; test: human IAP activators, dose response, biochemical, luminescent, uHTS hits, set 2 (AID 488817); type: functional;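 also: potency of activators that raise enzyme activity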
[3] = molecular target: T2, Alkaline phosphatase, tissue-nonspecific isozyme (Homo sapiens, UniProt P05186); test: TNAP enzyme activators, dose response, selectivity assay for human IAP activator project, biochemical, TNAP isozyme, human IAP uHTS hits (AID 488886); type: functional;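 also: potency of compounds raising TNAP activity as a selectivity check on IAP activators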
T2 sequence (P05186 whole entry): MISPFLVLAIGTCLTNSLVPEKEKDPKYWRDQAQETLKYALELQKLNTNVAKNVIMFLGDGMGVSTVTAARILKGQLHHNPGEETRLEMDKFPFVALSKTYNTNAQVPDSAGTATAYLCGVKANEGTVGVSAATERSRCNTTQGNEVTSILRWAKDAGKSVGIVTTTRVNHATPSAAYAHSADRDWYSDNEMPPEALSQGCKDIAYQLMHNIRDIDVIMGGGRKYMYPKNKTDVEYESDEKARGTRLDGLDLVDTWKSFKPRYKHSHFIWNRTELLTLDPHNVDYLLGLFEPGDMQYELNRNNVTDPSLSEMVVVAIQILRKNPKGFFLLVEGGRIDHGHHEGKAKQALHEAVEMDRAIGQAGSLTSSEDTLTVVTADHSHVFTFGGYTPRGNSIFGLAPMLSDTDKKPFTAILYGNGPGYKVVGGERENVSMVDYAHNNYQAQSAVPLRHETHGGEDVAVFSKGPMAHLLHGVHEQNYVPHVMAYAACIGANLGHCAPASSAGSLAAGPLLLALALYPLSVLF

[4] = molecular target: Intestinal-type alkaline phosphatase (Mus musculus, UniProt P24822); test: PubChem AID 488875; type: functional
Sequence of Intestinal-type alkaline phosphatase (Mus musculus, UniProt P24822) (P24822 whole entry): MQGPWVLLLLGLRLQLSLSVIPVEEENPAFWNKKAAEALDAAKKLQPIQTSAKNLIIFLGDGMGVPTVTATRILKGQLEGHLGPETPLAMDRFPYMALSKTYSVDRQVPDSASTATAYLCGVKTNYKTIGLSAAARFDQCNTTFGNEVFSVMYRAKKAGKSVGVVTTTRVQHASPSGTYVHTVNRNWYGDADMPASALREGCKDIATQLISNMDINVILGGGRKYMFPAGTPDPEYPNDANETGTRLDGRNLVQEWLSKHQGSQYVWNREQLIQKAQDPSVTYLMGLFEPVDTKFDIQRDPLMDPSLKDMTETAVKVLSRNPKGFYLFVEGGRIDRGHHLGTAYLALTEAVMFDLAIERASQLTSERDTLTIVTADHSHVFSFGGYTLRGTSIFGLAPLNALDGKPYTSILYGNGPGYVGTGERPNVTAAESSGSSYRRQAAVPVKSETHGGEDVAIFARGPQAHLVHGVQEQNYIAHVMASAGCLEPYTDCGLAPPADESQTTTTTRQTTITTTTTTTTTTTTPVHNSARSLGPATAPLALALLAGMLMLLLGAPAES

[5] = molecular target: T3, Lysine-specific demethylase 4C (Homo sapiens, UniProt Q9H3R0); test: GASC-1 (JMJD2C) histone demethylase inhibitors, dose response, biochemical, DELFIA europium, cherry-picked samples (AID 488835); type: functional
T3 sequence (Q9H3R0 whole entry): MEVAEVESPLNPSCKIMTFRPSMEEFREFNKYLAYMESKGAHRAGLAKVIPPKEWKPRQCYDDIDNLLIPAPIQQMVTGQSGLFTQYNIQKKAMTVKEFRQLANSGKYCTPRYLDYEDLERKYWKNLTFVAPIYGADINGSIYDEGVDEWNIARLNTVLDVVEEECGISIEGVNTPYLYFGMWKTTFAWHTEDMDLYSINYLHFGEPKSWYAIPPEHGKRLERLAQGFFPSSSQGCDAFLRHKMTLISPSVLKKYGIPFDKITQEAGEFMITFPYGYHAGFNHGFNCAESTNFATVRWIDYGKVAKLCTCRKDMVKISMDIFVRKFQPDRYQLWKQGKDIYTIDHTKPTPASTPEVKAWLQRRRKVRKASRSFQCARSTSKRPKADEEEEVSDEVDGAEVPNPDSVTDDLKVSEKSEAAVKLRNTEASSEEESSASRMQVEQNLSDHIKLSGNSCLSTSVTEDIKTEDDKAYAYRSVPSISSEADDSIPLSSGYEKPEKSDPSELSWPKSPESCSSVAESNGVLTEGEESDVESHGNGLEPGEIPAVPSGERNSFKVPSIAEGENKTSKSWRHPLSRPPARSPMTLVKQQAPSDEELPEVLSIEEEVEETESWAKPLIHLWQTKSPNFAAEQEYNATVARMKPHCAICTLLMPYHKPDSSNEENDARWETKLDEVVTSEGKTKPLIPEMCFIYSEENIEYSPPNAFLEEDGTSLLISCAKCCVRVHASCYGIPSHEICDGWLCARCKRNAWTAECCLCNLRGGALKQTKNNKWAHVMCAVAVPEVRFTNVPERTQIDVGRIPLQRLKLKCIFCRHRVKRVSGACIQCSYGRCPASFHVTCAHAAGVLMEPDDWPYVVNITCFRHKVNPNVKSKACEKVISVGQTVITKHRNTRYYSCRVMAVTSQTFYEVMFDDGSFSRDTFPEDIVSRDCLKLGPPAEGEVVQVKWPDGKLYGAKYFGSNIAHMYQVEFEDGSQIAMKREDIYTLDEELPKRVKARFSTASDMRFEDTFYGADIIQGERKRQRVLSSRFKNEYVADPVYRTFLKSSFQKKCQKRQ

Caspase-3 = molecular target: T4, Caspase-3 (Homo sapiens, UniProt P42574); test: caspase-3 enzyme inhibitors, selectivity check, dose response, selectivity assay for caspase-6 allosteric inhibitor project, biochemical, fluorescence, cherry-picked samples (AID 743291)
T4 sequence (P42574 whole entry): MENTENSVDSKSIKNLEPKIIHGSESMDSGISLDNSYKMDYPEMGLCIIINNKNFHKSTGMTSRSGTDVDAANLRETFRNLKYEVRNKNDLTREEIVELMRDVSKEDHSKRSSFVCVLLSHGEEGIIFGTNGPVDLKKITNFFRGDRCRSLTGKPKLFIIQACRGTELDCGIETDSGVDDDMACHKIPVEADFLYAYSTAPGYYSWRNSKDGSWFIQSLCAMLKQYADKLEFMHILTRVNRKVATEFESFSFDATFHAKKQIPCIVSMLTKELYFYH

[6] = molecular target: Matrix metalloproteinase-14 (Homo sapiens, UniProt P50281); test: Dose Response confirmation of uHTS hits for a small molecule inhibitors of MT1-MMP activation in a fluorescence assay set 2.; type: functional
Large T antigen = Large T antigen (Simian virus 40, UniProt P03070); type: functional, Betapolyomavirus macacae;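 also: Confirmatory-stage PubChem screen for compounds that inhibit SV40 T antigen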
Sequence of Large T antigen (P03070 whole entry): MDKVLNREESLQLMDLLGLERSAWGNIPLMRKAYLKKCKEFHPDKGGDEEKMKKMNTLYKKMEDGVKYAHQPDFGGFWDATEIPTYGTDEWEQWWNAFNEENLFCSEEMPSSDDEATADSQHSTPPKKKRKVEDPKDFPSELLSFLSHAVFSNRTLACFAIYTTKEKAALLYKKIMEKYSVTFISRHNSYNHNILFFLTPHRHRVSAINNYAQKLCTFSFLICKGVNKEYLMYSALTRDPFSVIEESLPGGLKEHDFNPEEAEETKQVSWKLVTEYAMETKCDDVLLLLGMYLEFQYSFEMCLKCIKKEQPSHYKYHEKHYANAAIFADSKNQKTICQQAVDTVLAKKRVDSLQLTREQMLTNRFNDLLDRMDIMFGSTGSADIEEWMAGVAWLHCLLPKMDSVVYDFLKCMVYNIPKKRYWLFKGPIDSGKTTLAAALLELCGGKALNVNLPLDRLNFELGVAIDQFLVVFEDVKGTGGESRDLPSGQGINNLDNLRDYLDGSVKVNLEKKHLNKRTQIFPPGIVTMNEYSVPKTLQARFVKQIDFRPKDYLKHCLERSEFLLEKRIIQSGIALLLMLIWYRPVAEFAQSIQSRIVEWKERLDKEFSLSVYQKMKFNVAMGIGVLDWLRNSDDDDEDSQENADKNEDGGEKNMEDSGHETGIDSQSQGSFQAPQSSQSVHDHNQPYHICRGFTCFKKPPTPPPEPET

Streptococcus = test: Group A Streptococcus viability loss, dose response, counter-screen for streptokinase expression inhibitor project, luminescence, BacTiterGlo (AID 1915); type: functional, organism-based;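 also: potency for reduction of bacterial viability or growth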
NS3 = NS3 (Hepatitis C virus, UniProt A3EZJ3); test: PubChem AID 2173; design: species or system Hepacivirus hominis
Sequence of NS3 (A3EZJ3 whole entry): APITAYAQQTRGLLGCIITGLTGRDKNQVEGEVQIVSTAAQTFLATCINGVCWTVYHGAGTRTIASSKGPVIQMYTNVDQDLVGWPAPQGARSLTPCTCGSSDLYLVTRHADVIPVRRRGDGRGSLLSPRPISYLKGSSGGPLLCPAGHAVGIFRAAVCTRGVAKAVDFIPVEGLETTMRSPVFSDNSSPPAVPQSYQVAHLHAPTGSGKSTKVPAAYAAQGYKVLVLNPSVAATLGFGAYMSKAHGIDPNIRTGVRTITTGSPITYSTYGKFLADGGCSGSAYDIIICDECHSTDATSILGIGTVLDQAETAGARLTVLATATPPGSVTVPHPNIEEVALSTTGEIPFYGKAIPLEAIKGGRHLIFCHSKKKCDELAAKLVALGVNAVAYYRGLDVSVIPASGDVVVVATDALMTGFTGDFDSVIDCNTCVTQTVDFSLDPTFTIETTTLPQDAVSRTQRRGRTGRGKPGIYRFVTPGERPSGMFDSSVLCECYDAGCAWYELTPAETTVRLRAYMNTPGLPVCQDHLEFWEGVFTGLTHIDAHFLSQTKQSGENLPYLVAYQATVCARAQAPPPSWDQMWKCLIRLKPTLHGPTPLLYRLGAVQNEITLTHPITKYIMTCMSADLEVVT

Caspase-8 = Caspase-8 (Homo sapiens, UniProt Q14790); test: caspase-8 inhibition counter-screen, dose response, selectivity assay for caspase-6 inhibitor project, biochemical, Z-IETD-R110 fluorescence, cherry-picked samples (AID 743294)
Sequence of Caspase-8 (Q14790 217-374 limits assumed): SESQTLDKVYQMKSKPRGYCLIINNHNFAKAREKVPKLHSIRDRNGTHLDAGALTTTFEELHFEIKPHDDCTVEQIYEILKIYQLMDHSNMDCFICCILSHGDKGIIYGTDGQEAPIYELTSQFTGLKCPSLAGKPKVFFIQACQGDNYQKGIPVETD
Sequence of Caspase-8 (Q14790 385-479 limits assumed): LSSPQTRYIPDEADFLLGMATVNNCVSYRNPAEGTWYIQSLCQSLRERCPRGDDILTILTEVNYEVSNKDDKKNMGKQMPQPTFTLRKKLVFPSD

[7] = molecular target: Lysine-specific demethylase 4A (Homo sapiens, UniProt O75164); test: JMJD2A histone demethylase inhibitors, dose response, selectivity assay for GASC-1 inhibitor project, biochemical, DELFIA europium, cherry-picked samples (AID 488840)
Sequence of Lysine-specific demethylase 4A (O75164 whole entry): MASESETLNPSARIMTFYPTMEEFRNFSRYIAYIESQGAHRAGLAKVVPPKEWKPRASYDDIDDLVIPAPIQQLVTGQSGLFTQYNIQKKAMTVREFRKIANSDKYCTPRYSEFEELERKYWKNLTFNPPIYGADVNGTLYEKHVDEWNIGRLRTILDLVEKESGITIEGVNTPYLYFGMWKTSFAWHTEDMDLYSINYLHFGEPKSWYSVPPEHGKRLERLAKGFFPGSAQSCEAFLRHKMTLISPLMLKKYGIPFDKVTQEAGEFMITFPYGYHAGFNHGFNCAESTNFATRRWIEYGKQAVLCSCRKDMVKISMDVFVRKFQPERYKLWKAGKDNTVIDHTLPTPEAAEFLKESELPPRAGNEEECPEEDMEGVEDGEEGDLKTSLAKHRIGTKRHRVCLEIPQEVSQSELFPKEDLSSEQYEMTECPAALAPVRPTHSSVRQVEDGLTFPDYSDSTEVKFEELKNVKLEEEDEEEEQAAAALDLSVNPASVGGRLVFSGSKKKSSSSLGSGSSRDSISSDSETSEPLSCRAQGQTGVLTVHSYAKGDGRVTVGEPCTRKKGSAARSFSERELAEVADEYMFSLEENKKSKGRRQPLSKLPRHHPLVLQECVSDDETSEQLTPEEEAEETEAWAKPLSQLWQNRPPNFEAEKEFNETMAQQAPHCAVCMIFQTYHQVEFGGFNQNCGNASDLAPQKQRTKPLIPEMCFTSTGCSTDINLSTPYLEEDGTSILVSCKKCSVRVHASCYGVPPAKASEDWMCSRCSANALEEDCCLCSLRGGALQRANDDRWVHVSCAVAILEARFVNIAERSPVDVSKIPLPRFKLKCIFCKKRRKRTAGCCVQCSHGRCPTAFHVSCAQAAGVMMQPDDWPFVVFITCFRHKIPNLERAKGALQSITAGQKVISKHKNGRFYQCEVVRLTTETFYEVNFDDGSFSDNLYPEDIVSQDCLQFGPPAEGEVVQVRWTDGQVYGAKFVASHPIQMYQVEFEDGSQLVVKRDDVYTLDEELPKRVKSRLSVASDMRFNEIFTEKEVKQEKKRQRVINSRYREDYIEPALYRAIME

[8] = molecular target: RNA-editing ligase 1, mitochondrial (Trypanosoma brucei brucei, UniProt P86926); test: TbREL1 ligase inhibitors, dose response, biochemical, fluorescence, Trypanosoma brucei (AID 1117295); type: functional
Troponin, cardiac muscle = Troponin, cardiac muscle (Homo sapiens, UniProt P19429+P45379+P63316); test: inhibitors of cardiac thin filament calcium sensitivity, dose response, biochemical, fluorescence, cardiac regulated thin filaments, triplicate IC50 (AID 504742); type: protein-complex assay
[9] = NIH-3T3 fibroblast cytotoxicity, dose response, cytotoxicity control, cell-based, fluorescence, Alamar Blue, secondary assay (AID 2327); type: functional;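 also: NIH-3T3 mouse fibroblasts cultured with fluconazole at 8 µg/mL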
[10] = C. albicans growth with fluconazole, confirmation, fluorescence, retest (AID 2467); type: functional, cell-based
[11] = tested on: Streptococcus sp. 'group A'; test: growth inhibition of control SK(-) GAS strain, dose response, counter-screen for streptokinase expression inhibitor project, luminescence, kanamycin, BacTiterGlo, confirmation (AID 1900); type: functional, organism-based
Caspase-9 = Caspase-9 (Homo sapiens, UniProt P55211); test: caspase-9 enzyme inhibition, dose response, selectivity assay for caspase-6 inhibitor project, biochemical, fluorescence, plate reader, cherry-picked samples (AID 743293)
Sequence of Caspase-9 (P55211 1-315 limits assumed): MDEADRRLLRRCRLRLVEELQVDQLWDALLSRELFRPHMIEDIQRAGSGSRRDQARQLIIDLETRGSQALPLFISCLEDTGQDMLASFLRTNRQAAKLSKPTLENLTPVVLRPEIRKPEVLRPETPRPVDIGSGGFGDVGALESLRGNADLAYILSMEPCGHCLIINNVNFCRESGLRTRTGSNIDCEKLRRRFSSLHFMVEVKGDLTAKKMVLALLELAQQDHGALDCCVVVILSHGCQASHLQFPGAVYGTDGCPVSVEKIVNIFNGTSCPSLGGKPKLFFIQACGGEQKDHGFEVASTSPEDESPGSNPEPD
Sequence of Caspase-9 (P55211 331-416 limits assumed): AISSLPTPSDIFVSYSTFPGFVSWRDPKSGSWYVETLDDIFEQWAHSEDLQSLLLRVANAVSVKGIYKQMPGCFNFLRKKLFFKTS

[12] = molecular target: 1-phosphatidylinositol 4,5-bisphosphate phosphodiesterase gamma-1 (Homo sapiens, UniProt P19174); test: Counterscreen for inhibitors of phospholipase C isozymes (PLC-B3): Fluorescence-based biochemical high throughput dose response assay to identify inhibitors of phospholipase C isozymes (PLC-gamma1).
Caspase-6 = molecular target: T5, Caspase-6 (Homo sapiens, UniProt P55212); test: human caspase-6 inhibitors, dose response, biochemical, VEID-R110 fluorescence, cherry-pick (AID 720632)
T5 sequence (P55212 whole entry): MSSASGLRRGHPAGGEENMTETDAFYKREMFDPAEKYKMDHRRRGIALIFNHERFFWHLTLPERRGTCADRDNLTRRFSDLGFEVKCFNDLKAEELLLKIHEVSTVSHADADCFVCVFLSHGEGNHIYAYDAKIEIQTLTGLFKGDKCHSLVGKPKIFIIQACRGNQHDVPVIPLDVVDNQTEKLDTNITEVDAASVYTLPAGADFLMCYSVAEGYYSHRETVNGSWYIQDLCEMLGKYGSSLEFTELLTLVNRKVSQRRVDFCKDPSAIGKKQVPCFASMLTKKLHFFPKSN

[13] = molecular target: Heat shock protein HSP 90-alpha (Homo sapiens, UniProt P07900); type: functional, organism-based
Vero = Vero cell cytotoxicity, cytotoxicity control for flavivirus capping enzyme inhibitors (AID 588742); type: functional; conditions: Chlorocebus sabaeus
Streptokinase A = molecular target: T6, Streptokinase A (Streptococcus pyogenes serotype M1, UniProt P10520); test: S. pyogenes streptokinase expression inhibitors, potency, dose response, plasminogen activation absorbance, OD405 (AID 1914); type: functional, Streptococcus pyogenes M1 GAS;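 also: secreted streptokinase activity via plasminogen activation per viability signal from cell pellet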
T6 sequence (P10520 whole entry): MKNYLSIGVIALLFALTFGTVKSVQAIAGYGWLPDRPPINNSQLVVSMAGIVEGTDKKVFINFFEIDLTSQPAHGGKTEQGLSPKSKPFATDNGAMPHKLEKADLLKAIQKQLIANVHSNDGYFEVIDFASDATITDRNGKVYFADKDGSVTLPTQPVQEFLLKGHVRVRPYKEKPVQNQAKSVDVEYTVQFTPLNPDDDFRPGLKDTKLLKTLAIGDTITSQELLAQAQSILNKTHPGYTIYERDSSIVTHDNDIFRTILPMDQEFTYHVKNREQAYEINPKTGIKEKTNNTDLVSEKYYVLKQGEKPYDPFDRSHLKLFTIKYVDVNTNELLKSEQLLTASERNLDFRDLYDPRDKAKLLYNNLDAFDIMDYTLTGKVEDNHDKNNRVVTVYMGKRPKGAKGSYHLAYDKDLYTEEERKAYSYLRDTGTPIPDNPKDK

[14] = molecular target: 1-phosphatidylinositol 4,5-bisphosphate phosphodiesterase beta-3 (Homo sapiens, UniProt Q01970); test: Fluorescence-based biochemical high throughput dose response assay to identify inhibitors of phospholipase C isozymes (PLC-B3).
Caspase-7 = Caspase-7 (Homo sapiens, UniProt P55210); test: human caspase-7 inhibitors, dose response, selectivity assay for caspase-6 inhibitor project, biochemical, DEVD-R110 fluorescence, cherry-pick (AID 743295)
Sequence of Caspase-7 (P55210 24-198 limits assumed): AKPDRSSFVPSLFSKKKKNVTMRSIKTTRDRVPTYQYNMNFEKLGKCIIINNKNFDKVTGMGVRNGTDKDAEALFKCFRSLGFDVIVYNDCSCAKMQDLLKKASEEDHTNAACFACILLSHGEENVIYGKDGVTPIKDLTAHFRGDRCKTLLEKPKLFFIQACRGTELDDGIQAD
Sequence of Caspase-7 (P55210 207-303 limits assumed): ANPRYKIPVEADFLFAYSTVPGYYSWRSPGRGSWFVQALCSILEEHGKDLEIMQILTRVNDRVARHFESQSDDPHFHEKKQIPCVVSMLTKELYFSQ

[15] = molecular target: T7, Mannose-6-phosphate isomerase (Homo sapiens, UniProt P34949); test: PMI enzyme inhibitors, confirmation, biochemical, fluorescence intensity (AID 1535)
T7 sequence (P34949 whole entry): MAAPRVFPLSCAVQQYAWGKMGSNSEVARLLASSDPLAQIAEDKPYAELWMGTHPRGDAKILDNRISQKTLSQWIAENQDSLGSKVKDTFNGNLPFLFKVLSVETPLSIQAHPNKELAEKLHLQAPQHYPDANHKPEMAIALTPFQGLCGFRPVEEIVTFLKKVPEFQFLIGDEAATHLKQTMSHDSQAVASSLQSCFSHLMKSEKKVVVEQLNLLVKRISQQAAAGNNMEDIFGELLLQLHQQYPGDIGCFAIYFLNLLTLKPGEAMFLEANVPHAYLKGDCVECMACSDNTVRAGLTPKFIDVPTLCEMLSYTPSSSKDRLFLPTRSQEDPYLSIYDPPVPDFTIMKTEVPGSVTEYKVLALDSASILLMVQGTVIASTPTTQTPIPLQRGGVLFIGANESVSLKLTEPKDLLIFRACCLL

Phosphomannomutase 2 = Phosphomannomutase 2 (Homo sapiens, UniProt O15305); test: Counter screen SAR assay for PMM2 inhibitors via a fluorescence intensity assay. [Related pubchem assays (depositor defined):AID1545, AID1574]
Sequence of Phosphomannomutase 2 (O15305 whole entry): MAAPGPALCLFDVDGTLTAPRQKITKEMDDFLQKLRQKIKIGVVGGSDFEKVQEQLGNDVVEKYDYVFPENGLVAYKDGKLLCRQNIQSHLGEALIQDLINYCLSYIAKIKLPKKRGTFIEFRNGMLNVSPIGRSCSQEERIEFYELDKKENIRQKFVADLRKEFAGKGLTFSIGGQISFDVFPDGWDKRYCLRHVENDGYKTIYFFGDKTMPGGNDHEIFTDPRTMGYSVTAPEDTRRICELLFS

T1 sequence (P09923 whole entry): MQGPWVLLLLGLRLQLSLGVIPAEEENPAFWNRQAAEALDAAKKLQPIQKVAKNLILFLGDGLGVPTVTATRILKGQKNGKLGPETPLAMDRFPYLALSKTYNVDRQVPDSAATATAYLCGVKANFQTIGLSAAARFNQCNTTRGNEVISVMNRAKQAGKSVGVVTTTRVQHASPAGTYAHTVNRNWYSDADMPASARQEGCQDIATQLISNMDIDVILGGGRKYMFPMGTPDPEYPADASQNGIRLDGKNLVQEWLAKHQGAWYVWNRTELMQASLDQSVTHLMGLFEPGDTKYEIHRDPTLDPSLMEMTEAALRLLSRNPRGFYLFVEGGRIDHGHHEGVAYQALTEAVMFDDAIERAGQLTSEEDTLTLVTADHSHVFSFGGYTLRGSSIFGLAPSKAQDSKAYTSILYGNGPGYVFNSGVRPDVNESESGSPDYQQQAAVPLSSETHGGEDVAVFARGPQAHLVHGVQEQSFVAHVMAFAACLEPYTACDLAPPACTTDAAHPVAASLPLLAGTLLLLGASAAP

Q: With COc1ccccc1CNC(=O)CN(c1ccc(C)cc1)S(=O)(=O)c1c(C)noc1C as the molecule, how does the EC50 [1] read?
A: Its EC50 is 86 µM (active).

Q: What about the EC50 [2] of the same molecule?
A: Its EC50 is 99 µM (active).

Q: What about the EC50 [3] of the same molecule?
A: The EC50 was 76.2 µM (active).

Q: And the EC50 [4]?
A: The EC50 was 67.5 µM (active).

Q: Which AC50 [5] does the source give for O=c1cc2oc3cc(O)c(O)cc3c(-c3ccccc3[N+](=O)[O-])c-2cc1O here?
A: Its AC50 is 1.97 µM (active).

Q: What about the AC50 (Caspase-3) of the same molecule?
A: The AC50 was 0.122 µM (active).

Q: And the IC50 [6]?
A: Its IC50 is 17.9 µM (active).

Q: And the IC50 (Large T antigen)?
A: Its IC50 is 5.91 µM (active).

Q: And the EC50 (Streptococcus)?
A: Its EC50 is 10.2 µM (active).

Q: What about the IC50 (NS3) of the same molecule?
A: The IC50 was 0.99 µM (active).

Q: And the AC50 (Caspase-8)?
A: The AC50 was 41.3 µM (active).

Q: And the AC50 [7]?
A: The AC50 was 2.01 µM (active).

Q: And the IC50 [8]?
A: Its IC50 is > 96.6 µM (inactive).

Q: What about the IC50 (Troponin, cardiac muscle) of the same molecule?
A: The IC50 was 1.64 µM (active).

Q: What about the EC50 [9] of the same molecule?
A: Its EC50 is 8.25 µM (active).

Q: What about the EC50 [10] of the same molecule?
A: Its EC50 is 1.07 µM (active).

Q: What about the EC50 [11] of the same molecule?
A: Its EC50 is 7.94 µM (active).

Q: And the AC50 (Caspase-9)?
A: The AC50 was > 70 µM (inactive).

Q: And the IC50 [12]?
A: Its IC50 is 67.5 µM (inactive).

Q: And the AC50 (Caspase-6)?
A: Its AC50 is 0.018 µM (active).

Q: What about the AC50 [13] of the same molecule?
A: Its AC50 is 2.9 µM (active).

Q: And the CC50 (Vero)?
A: The CC50 was 12.2 µM (active).

Q: And the EC50 (Streptokinase A)?
A: The EC50 was 11.2 µM (active).

Q: And the IC50 [14]?
A: Its IC50 is > 123 µM (inactive).

Q: And the AC50 (Caspase-7)?
A: The AC50 was 1.33 µM (active).

Q: What does the source list for COc1ccc(/N=c2\ssnc2Cl)cc1OC?
A: IC50 [15]: 36.7 µM (active); IC50 (Phosphomannomutase 2): > 100 µM (inactive)
